From publication PMC10002517, “Inhibition of Transglutaminase 2 as a Therapeutic Strategy in Celiac Disease—In Vitro Studies in Intestinal Cells and Duodenal Biopsies” (International Journal of Molecular Sciences, 2023)

Test system: transepithelial passage of P31-43 in Caco-2 cells
Test: Transepithelial transport of promofluor-conjugated gliadin peptide P31-43 across Caco-2 monolayers (fluorometry)
Assay type: cell-based, human
Conditions: 1 µM and 100 µM inhibitor; 3 h
Description: Transepithelial transport of immunogenic and toxic gliadin peptides were examined in Caco-2 cells 7–14 days after confluency. Caco-2 cells were seeded on semi-permeable transwell supports (ThinCert, culture surface: 33.6 mm², pore size: 0.4 µm) in 24-well plates (Greiner Bio One, Pleidelsheim, Germany). Prior to the transport experiments, the integrity of the cell monolayer was tested by measuring the transepithelial electric resistance (TEER) using a volt-ohm meter (Millipore, Schwalbach, Germany). Monolayers with insufficient TEER (<350 Ω/cm^2) were omitted. The synthesis and purification of promofluor-conjugated gliadin peptides were described elsewhere. Cells were either incubated with the immunogenic peptide P56-88 ([…]) or the toxic gliadin peptide P31-43 (LGQQQPFPPQQPY), 7 µg/mL each, in Hank’s balanced salt solution (HBSS) for 3 h. To investigate the role of TG2 on the transport of gliadin peptides, incubation was performed in the presence of ERW1041 and PX-12. After 3 h, basal and apical supernatants were collected, and the relative fluorescence of the basal compartment was quantified using a FLUOstar Optima (BMG Labtech) microplate reader. Background subtraction was performed against conditions, where no labeled peptides were used. Normalization was performed against conditions, where no inhibitors were used.

With O=C(NC[C@@H]1CC(Br)=NO1)[C@@H]1CCCN1C(=O)OCc1cnc2ccccc2c1 [ERW1041] as the molecule, how does the “transport of P31-43” value read?
The value was “remained unaffected”.
